In BindingDB's records for doi:10.1016/j.bmcl.2004.10.029 (Glaxosmithkline, 2005):

Assays:
[1] = target: T1, Dimer of Gag-Pol polyprotein [501-599,Q508K,L534I,L564I,C568A,C596A] (Human immunodeficiency virus 1, UniProt P03367, C568A/C596A/L534I/L564I/Q508K); assay: Protease Inhibition Assay; details: pH 6.4; 25 °C
T1 construct: 501-599
Protocol: The Ki values were determined using fluorogenic substrate, 2-(aminobenzoyl)-Thr-Ile-Nle-Phe(p-NO2)-Gln-ArgNH2. A standard curve relating changes in fluorescent intensity to changes in concentration of product was used to convert fluorescent changes into molar velocities. The amount of cleavage was determined by HPLC.

[2] = target: T1, Dimer of Gag-Pol polyprotein [501-599,Q508K,L534I,L564I,C568A,C596A]; assay: Protease Inhibition Assay; details: pH 6.4; 25 °C; remark: listed apart in the source

SMILES | Ki [1] [nM] | IC50 [2] [nM]
O=C(N[C@H]1c2ccccc2C[C@H]1O)[C@H](Cc1ccc(OCCOC(=O)N2CCOCC2)cc1)C[C@H](O)CN1C(=O)[C@@H](Cc2ccccc2)C[C@@H]1Cc1ccccc1 [2-{4-[(2R)-2-[(2S)-3-[(3S,5R)-3,5-dibenzyl-2-oxopyrrolidin-1-yl]-2-hydroxypropyl]-2-{[(1S,2R)-2-hydroxy-2,3-dihydro-1H-inden-1-yl]carbamoyl}ethyl]phenoxy}ethyl morpholine-4-carboxylate] | 0.05 | 240
O=C(N[C@H]1c2ccccc2C[C@H]1O)[C@H](Cc1ccc(Cc2ccccc2)cc1)C[C@H](O)CN1C(=O)[C@@H](Cc2ccccc2)C[C@@H]1Cc1ccccc1 [(2R,4S)-2-[(4-benzylphenyl)methyl]-5-[(3S,5R)-3,5-dibenzyl-2-oxopyrrolidin-1-yl]-4-hydroxy-N-[(1S,2R)-2-hydroxy-2,3-dihydro-1H-inden-1-yl]pentanamide] | 0.11 | 920
O=C(N[C@H]1c2ccccc2C[C@H]1O)[C@H](Cc1ccccc1)C[C@H](O)CN1C(=O)[C@@H](Cc2ccccc2)C[C@@H]1Cc1ccc(Cc2ccccc2)cc1 [(2R,4S)-2-benzyl-5-[(3S,5R)-3-benzyl-5-[(4-benzylphenyl)methyl]-2-oxopyrrolidin-1-yl]-4-hydroxy-N-[(1S,2R)-2-hydroxy-2,3-dihydro-1H-inden-1-yl]pentanamide] | 0.13 | 550
O=C(N[C@H]1c2ccccc2C[C@H]1O)[C@H](Cc1ccccc1)C[C@H](O)CN1C(=O)[C@@H](Cc2ccccc2)C[C@@H]1Cc1ccc(O)cc1 [(2R,4S)-2-benzyl-5-[(3S,5R)-3-benzyl-5-[(4-hydroxyphenyl)methyl]-2-oxopyrrolidin-1-yl]-4-hydroxy-N-[(1S,2R)-2-hydroxy-2,3-dihydro-1H-inden-1-yl]pentanamide] | – | 200
O=C(N[C@H]1c2ccccc2C[C@H]1O)[C@H](Cc1ccccc1)C[C@H](O)CN1C(=O)[C@@H](Cc2ccccc2)C[C@@H]1Cc1ccc(OCCO)cc1 [(2R,4S)-2-benzyl-5-[(3S,5R)-3-benzyl-5-{[4-(2-hydroxyethoxy)phenyl]methyl}-2-oxopyrrolidin-1-yl]-4-hydroxy-N-[(1S,2R)-2-hydroxy-2,3-dihydro-1H-inden-1-yl]pentanamide] | 0.3 | 480
NC(=O)COc1ccc(C[C@H](C[C@H](O)CN2C(=O)[C@@H](Cc3ccccc3)C[C@@H]2Cc2ccccc2)C(=O)N[C@H]2c3ccccc3C[C@H]2O)cc1 [(2R,4S)-2-{[4-(carbamoylmethoxy)phenyl]methyl}-5-[(3S,5R)-3,5-dibenzyl-2-oxopyrrolidin-1-yl]-4-hydroxy-N-[(1S,2R)-2-hydroxy-2,3-dihydro-1H-inden-1-yl]pentanamide] | 0.07 | 360
COCCOCCOc1ccc(C[C@H](C[C@H](O)CN2C(=O)[C@@H](Cc3ccccc3)C[C@@H]2Cc2ccccc2)C(=O)N[C@H]2c3ccccc3C[C@H]2O)cc1 [(2R,4S)-5-[(3S,5R)-3,5-dibenzyl-2-oxopyrrolidin-1-yl]-4-hydroxy-N-[(1S,2R)-2-hydroxy-2,3-dihydro-1H-inden-1-yl]-2-({4-[2-(2-methoxyethoxy)ethoxy]phenyl}methyl)pentanamide] | 0.02 | 93
CN1CCN(C(=O)COc2ccc(C[C@H](C[C@H](O)CN3C(=O)[C@@H](Cc4ccccc4)C[C@@H]3Cc3ccccc3)C(=O)N[C@H]3c4ccccc4C[C@H]3O)cc2)CC1 [(2R,4S)-5-[(3S,5R)-3,5-dibenzyl-2-oxopyrrolidin-1-yl]-4-hydroxy-N-[(1S,2R)-2-hydroxy-2,3-dihydro-1H-inden-1-yl]-2-({4-[2-(4-methylpiperazin-1-yl)-2-oxoethoxy]phenyl}methyl)pentanamide] | 0.05 | 130
O=C(N[C@H]1c2ccccc2C[C@H]1O)[C@H](Cc1ccc(OCC(=O)N2CCOCC2)cc1)C[C@H](O)CN1C(=O)[C@@H](Cc2ccccc2)C[C@@H]1Cc1ccccc1 [(2R,4S)-5-[(3S,5R)-3,5-dibenzyl-2-oxopyrrolidin-1-yl]-4-hydroxy-N-[(1S,2R)-2-hydroxy-2,3-dihydro-1H-inden-1-yl]-2-({4-[2-(morpholin-4-yl)-2-oxoethoxy]phenyl}methyl)pentanamide] | 0.02 | 63
O=C(N[C@H]1c2ccccc2C[C@H]1O)[C@H](Cc1ccc(OCCN2CCOCC2)cc1)C[C@H](O)CN1C(=O)[C@@H](Cc2ccccc2)C[C@@H]1Cc1ccccc1 [(2R,4S)-5-[(3S,5R)-3,5-dibenzyl-2-oxopyrrolidin-1-yl]-4-hydroxy-N-[(1S,2R)-2-hydroxy-2,3-dihydro-1H-inden-1-yl]-2-({4-[2-(morpholin-4-yl)ethoxy]phenyl}methyl)pentanamide] | 0.14 | 83
O=C(N[C@H]1c2ccccc2C[C@H]1O)[C@H](Cc1ccc(O)cc1)C[C@H](O)CN1C(=O)[C@@H](Cc2ccccc2)C[C@@H]1Cc1ccccc1 [(2R,4S)-5-[(3S,5R)-3,5-dibenzyl-2-oxopyrrolidin-1-yl]-4-hydroxy-N-[(1S,2R)-2-hydroxy-2,3-dihydro-1H-inden-1-yl]-2-[(4-hydroxyphenyl)methyl]pentanamide] | 0.06 | 320
O=C(N[C@H]1c2ccccc2C[C@H]1O)[C@H](Cc1ccc(OCCO)cc1)C[C@H](O)CN1C(=O)[C@@H](Cc2ccccc2)C[C@@H]1Cc1ccccc1 [(2R,4S)-5-[(3S,5R)-3,5-dibenzyl-2-oxopyrrolidin-1-yl]-4-hydroxy-N-[(1S,2R)-2-hydroxy-2,3-dihydro-1H-inden-1-yl]-2-{[4-(2-hydroxyethoxy)phenyl]methyl}pentanamide] | 0.02 | 94
O=C(N[C@H]1c2ccccc2C[C@H]1O)[C@H](Cc1ccc(OCc2ccccn2)cc1)C[C@H](O)CN1C(=O)[C@@H](Cc2ccccc2)C[C@@H]1Cc1ccccc1 [(2R,4S)-5-[(3S,5R)-3,5-dibenzyl-2-oxopyrrolidin-1-yl]-4-hydroxy-N-[(1S,2R)-2-hydroxy-2,3-dihydro-1H-inden-1-yl]-2-{[4-(pyridin-2-ylmethoxy)phenyl]methyl}pentanamide] | 0.07 | 380
O=C(N[C@H]1c2ccccc2C[C@H]1O)[C@H](Cc1ccccc1)C[C@H](O)CN1C(=O)[C@@H](Cc2ccccc2)C[C@@H]1Cc1ccc(OCCN2CCOCC2)cc1 [pyrrolidinone based inhibitor 1g] | 1.3 | 960
O=C(N[C@H]1c2ccccc2C[C@H]1O)[C@H](Cc1ccccc1)C[C@H](O)CN1C(=O)[C@@H](Cc2ccccc2)C[C@@H]1Cc1ccc(OCC(=O)N2CCOCC2)cc1 [pyrrolidinone based inhibitor 1k] | 0.1 | 200
O=C(N[C@H]1c2ccccc2C[C@H]1O)[C@H](Cc1ccccc1)C[C@H](O)CN1C(=O)[C@@H](Cc2ccccc2)C[C@@H]1Cc1ccccc1 [pyrrolidinone scaffold 8b] | – | 0.05
